Experimental findings from US7358402B2, “Reduced coenzyme Q10 crystal with excellent stability and composition containing said reduced coenzyme Q10 crystal” (Kaneka Corporation, priority 2003, dated 2008) are described below.

A short description of this data set: Plasma concentration of reduced coenzyme Q10 after oral administration to rats. The note with it: SD rats, male, oral 30 mg/kg as suspension with rapeseed oil (1:2) in 0.2% Tween 80. The class given is in vivo. As to the method: Using the reduced coenzyme Q10 obtained in Example 1 and the reduced coenzyme Q10 obtained in Comparative Example 1, the blood concentrations of reduced coenzyme Q10 were measured when they were orally administered to rats. Each samples and rapeseed oil were added to aqueous solution of 0.2% Tween 80 to prepare suspension in which reduced coenzyme Q10:rapeseed oil=1:2. The suspension was orally administered to SD rats (male, 6 rats in one group) forcibly using a stomach sonde in 30 mg (reduced coenzyme Q10)/kg (rat body weight). Thereafter, the blood was sampled with time, and the plasma concentration of reduced coenzyme Q10 was measured by HPLC.

With `COc1c(O)c(C)c(C/C=C(\C)CC/C=C(\C)CC/C=C(\C)CC/C=C(\C)CC/C=C(\C)CC/C=C(\C)CC/C=C(\C)CC/C=C(\C)CC/C=C(\C)CCC=C(C)C)c(O)c1OC` [Crystals obtained in Comparative Example 1] [reduced coenzyme Q10], the “Tmax, time to maximum plasma concentration” value (listed as Reduced coenzyme Q10 crystals obtained in Comparative Example 1, 30 mg/kg) was 8 h.
Regarding `COc1c(O)c(C)c(C/C=C(\C)CC/C=C(\C)CC/C=C(\C)CC/C=C(\C)CC/C=C(\C)CC/C=C(\C)CC/C=C(\C)CC/C=C(\C)CC/C=C(\C)CCC=C(C)C)c(O)c1OC` [Crystals obtained in Example 1, reduced coenzyme Q10], the “Tmax, time to maximum plasma concentration” value (listed as Reduced coenzyme Q10 crystals obtained in Example 1, 30 mg/kg) was 4 h.
